Measured values: paper PMC8040948 (Journal of medicinal chemistry, 2020)
In brackets after ≈: the same amount, converted by molar mass. Where two headings read alike, the source gives them in different places.

Key:
[1] = target: T1, CYP1A2 (Homo sapiens, UniProt P05177); test: CYP1A2 inhibition
T1 sequence (P05177 1-516): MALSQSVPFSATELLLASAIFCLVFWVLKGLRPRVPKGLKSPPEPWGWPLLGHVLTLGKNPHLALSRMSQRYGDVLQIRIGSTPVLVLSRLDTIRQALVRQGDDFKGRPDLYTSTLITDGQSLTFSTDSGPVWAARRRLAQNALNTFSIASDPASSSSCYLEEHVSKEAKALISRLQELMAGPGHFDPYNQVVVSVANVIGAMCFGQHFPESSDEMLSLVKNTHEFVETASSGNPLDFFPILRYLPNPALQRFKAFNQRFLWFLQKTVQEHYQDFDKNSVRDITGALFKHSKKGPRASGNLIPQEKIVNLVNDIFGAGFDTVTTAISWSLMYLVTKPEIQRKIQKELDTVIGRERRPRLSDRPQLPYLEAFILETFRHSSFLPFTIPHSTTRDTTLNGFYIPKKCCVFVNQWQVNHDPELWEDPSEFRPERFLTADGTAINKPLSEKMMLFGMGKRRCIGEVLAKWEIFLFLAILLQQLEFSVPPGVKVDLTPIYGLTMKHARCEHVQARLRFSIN

[2] = target: T2, CYP3A4 (Homo sapiens, UniProt P08684); test: CYP3A4 inhibition
[3] = Aqueous solubility, pION method; conditions: Table 5, pION method
[4] = Pharmacokinetics in the rat, ip and iv
[5] = Plasma protein binding in three species
[6] = target: CYP2C9 (Homo sapiens, UniProt P11712); conditions: read-out: CYP2C9 (IC50); ref Yu et al.[23]; cited from earlier work
[7] = target: T2, CYP3A4; conditions: read-out: CYP3A4 (IC50); ref Yu et al.[23]; cited from earlier work
[8] = human, rat, and mouse plasma, ref Yu et al.[23]; cited from earlier work
[9] = human (h) microsomes; ref Yu et al.[23]; cited from earlier work
[10] = ref Yu et al.[23]; cited from earlier work
[11] = ref Yu et al.[23]; cited from earlier work; remark: listed apart in the source

T2 sequence (P08684 whole entry): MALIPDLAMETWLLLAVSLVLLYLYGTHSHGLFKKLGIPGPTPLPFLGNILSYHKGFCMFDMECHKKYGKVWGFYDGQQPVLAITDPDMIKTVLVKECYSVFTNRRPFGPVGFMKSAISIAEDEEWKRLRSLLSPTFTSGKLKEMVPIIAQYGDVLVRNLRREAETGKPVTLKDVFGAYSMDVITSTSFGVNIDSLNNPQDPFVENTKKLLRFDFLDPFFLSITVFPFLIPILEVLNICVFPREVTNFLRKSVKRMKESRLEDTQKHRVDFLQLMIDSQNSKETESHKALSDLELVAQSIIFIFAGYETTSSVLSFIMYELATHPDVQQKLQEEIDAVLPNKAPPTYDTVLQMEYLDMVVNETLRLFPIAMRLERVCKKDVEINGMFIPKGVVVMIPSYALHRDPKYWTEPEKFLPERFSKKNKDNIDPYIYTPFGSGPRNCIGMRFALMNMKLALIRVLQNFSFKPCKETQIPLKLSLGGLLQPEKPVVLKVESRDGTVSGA
Chain of CYP2C9 (P11712 whole entry): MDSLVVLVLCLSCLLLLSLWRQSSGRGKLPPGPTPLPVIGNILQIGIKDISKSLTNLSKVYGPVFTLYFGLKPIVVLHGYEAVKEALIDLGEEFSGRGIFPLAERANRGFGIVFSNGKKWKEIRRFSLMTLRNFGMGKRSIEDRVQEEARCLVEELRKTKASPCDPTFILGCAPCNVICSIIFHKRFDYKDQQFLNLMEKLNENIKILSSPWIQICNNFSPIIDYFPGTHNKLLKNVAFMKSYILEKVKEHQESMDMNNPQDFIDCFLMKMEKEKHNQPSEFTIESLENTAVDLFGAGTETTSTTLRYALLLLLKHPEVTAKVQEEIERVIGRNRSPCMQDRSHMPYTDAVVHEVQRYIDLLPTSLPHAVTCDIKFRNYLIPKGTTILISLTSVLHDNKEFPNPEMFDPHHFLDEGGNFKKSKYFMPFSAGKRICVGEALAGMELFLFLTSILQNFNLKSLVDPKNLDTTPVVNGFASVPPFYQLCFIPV

Structure (SMILES)	IC50 [1]	IC50 [2]	solubility ([3]; pH 4, aqueous solubility (pH 4.0, μg/mL), pH 4.0, mean ± SD)	solubility ([3]; pH 7.4, aqueous solubility (pH 7.4, μg/mL), pH 7.4, mean ± SD)	time at which maximal plasma concentration was reached [4]	plasma concentration at the 12 h time point ([4]; highest dose (10 mg/kg), 12 h)	plasma protein binding [5]	IC50 [6]	IC50 [7]	plasma stability (three species) (% remaining at 120 min) [8]	microsomal stability (t1/2, min) [9]	simulated intestinal fluid (% remaining at 120 min) [10]	simulated gastric fluid (% remaining at 120 min) [11]
O=C(O)c1cc(-c2ccc(C34CCN(CC3)CC4)cc2)cc(-n2cc(-c3ccc(C(F)(F)F)cc3)nn2)c1 [Compound 18, 4′-(Quinuclidin-4-yl)-5-(4-(4-(trifluoromethyl)phenyl)-1H-1,2,3-triazol-1-yl)-[1,1′-biphenyl]-3-carboxylic Acid]	14.1 µM	9.94 µM	14.4 ± 0.3 µg/mL (≈ 27.8 µM)	< 0.1 µg/mL	3 to 4 h	200 to 400 ng/kg	high						
NC(=O)c1ccc(-c2cc(C(=O)O)cc(-n3cc(-c4ccc(C(F)(F)F)cc4)nn3)c2)cc1 [Compound 22]								> 30 µM	> 30 µM	94–100%	145 min	100%	100%
